Experimental findings from PMC9253268 (Frontiers in Immunology, 2022) are described below.

The structures appear in SMILES notation.

By Kd is commonly meant the constant that tells how readily two partners part at equilibrium. The term Cmax denotes the highest concentration seen after dosing. For orientation: AUC(0-t) means exposure summed from dosing to a finite time, without extrapolation to infinity. A higher AUC(0-t) goes with more exposure. The term AUC(0-inf) denotes total exposure, with the tail of the curve extrapolated.

One data set has as its target T1, recombinant TLR4 protein (Homo sapiens, UniProt O00206).
T1 construct: purchased Abcam ab233665
The experiment in a line: Microscale thermophoresis (MST) binding assay. As to conditions: 1:1 binding mode, read-out: mean KD, CA–TLR4. As for the experimental part:
The binding affinity between recombinant TLR4 protein and CA was measured by a NanoTemper Monolith NT.115 instrument (NanoTemper Technologies, Germany). The K D value was fitted by NanoTemper Monolith affinity software (NanoTemper Technologies, Germany) using 1:1 binding mode. Detailed information on the MST assay is provided in Supplementary Materials Section 12 . […]
compound was greater than 9.0×106cm/s and 40% which indicated drug-like […]
Section 11 Surface plasmon resonance (SPR) assay
SPR binding assays were analyzed with Biacore 8K (Biacore, Cytiva). Materials and reagents used in SPR assays were purchased from Cytiva. […]
UK) and CA contained in BHGZD was measured by NanoTemper Monolith NT.115 instrument (NanoTemper Technologies, Germany). […]
After the protein labeling experiment was completed, TLR4 was diluted with binding buffer (20mM HEPES, pH 7.4, 100mM NaCl and 0.005% Tween 20) to ensure that the fluorescence intensity of TLR4 during the MST assay was about 500 RU. […]
After incubation, the samples were loaded into the premium treated capillaries and measured in NanoTemper Monolith NT.115 instrument (NanoTemper Technologies, Germany). […]
The pharmacokinetic parameters were calculated by Drug and Statistic software
(In MST a laser heats a spot of the sample, and binding alters the fluorescence response.)

Data set [1] can be described thus: In vivo pharmacokinetic analysis of MG and CA after oral BHGZD (UHPLC-QTRAP-MS/MS). As to conditions: rat plasma after oral BHGZD 21.4 g/kg each day, n = 3. On the procedure: The pharmacokinetic parameters were calculated by Drug and Statistic software (Shanghai, China). Detailed information on the collection of blood samples and UHPLC-QTRAP-MS/MS conditions is provided in Supplementary Materials Section 13 . […]
Section 13 Pharmacokinetic analysis […]
administration of BHGZD, ultra-fast liquid chromatography coupled with triple quadrupole-linear ion trap composite mass spectrometry (UHPLC-QTRAP-MS/MS) system was […]
Bioanalytical Method Validation issued by Chinese Pharmacopoeia Commission in 2020.
The pharmacokinetic parameters were calculated by Drug and Statistic software […]
1) Collection of blood samples
Male Lewis rats (n=6, 6-8 weeks-old, 200±20g in weight) were purchased from Beijing Vital River Laboratory Animal Technology Co., Ltd. (SCCK 2016-0006, Beijing, China; n=3 per group, including normal control group and normal control+BHGZD treatment group).
Diet was prohibited for 12h before the experiment but water was freely available. Blood samples (~0.25mL) were collected from the retinal venous plexus into heparinized 1.5mL polythene tubes before administration and 0, 0.25, 0.5, 1, 2, 3, 4, 6, 8,12 and 24h after administration of BHGZD. The plasma samples were obtained after centrifuging at 12000rpm for 15min, and stored at -20℃ prior to analysis.
2) UHPLC-QTRAP-MS/MS conditions
Quantification analysis were performed on an ultra-high-performance liquid chromatography (Shimadzu Corp., Japan) tandem ion trap quadrupole QTRAP 6500 plus mass spectrometry (AB Sciex, USA). Chromatographic separation was conducted using a Poroshell 120 EC-C18 column (3.0×50mm, 2.7μm) at 40℃. The mobile phase was consisted of 0.1% formic acid–water (v/v, A) and methanol (B) and elution program were:
Mass spectrometry detector were conducted in negative mode and the detecting parameters were set as follows: curtain gas, 35 psi; collision gas, medium; ionspray voltage, 4500 V; temperature, 550℃; ion source gas 1 and 2, 55psi. Quantitative ion pairs were optimized for MG: m/z 421.2-301.1 (declustering potential: 63V, CE: 30eV) and for […]
Data acquisition and analysis

Data set [2] has as its system RAW264.7 cells. The experiment in a line: Cell viability, CCK-8 assay. The class given is cell-based, mouse. Particulars: 0.21–6.74 ng/ml MG or 0.02–0.52 ng/ml CA treatment alone. As for the experimental part: Cell viability was analyzed with the cell counting kit-8 (CCK-8) assay kit (Beyotime Biotechnology, Shanghai, China) as described in Supplementary Materials Section 16 .
Section 16 Cell proliferation assay
Cell viability was analyzed with Cell Counting Kit-8 (CCK-8) assay kit (Beyotime Biotechnology, China). Raw264.7 cells were seeded into 96-well plate, and after […]
solution was added to each well. The absorbance was measured after 4h of incubation at […]
Section 17 Flow cytometry
To identify and quantify of pyroptosis population of Raw264.7 cells, FITC Apoptosis Detection kit I staining with both the Annexin V-fluorescein isothiocyanate and propidium iodide (PI, BD Biosciences, San Jose, CA, USA) was used in accordance with manufacturer's guidelines. Briefly, Raw264.7 cells was washed twice with cold PBS and then resuspended in 1×binding buffer at a concentration of 1x10^6 cells/mL. Then, 100µL of the solution (1x10^5 cells) was transferred to a 5 mL culture tube. Subsequently, 5µL of FITC Annexin V and 5µL PI were added into cultured tube, and vortexed and incubated for 15 min at room temperature in the dark. Finally, 400µL 1×binding buffer was added into each tube, and analyzed by flow cytometry (ACEA Bioscience, San Diego, CA, USA) and NovoExpress 1.4.1 software (ACEA Bioscience, San Diego, CA, USA) within 1h.
Background: Tetrazolium dyes change colour on reduction, which living cells bring about.

Data set [3] relates to RAW264.7 cells. The experiment in a line: LPS/ATP-induced pyroptosis in RAW264.7 cells (flow cytometry, FAM-FLICA, immunofluorescence, Western blotting, ELISA). The class given is cell-based, mouse. A general note: Flow cytometry measures light scatter and fluorescence of single cells or particles in a stream.
Description: (§1) Mouse macrophage cell line (RAW264.7 cells, Bio-Swamp, Wuhan, China) and fibroblast-like synoviocytes in patients with RA (MH7A cells, Riken cell bank, Ibaraki, Japan) at passage numbers four to eight were used in the current experiment validations.
(§2) The concentration of DMSO was less than 1‰ of the solution for the in vitro experiment.
Fluorescence images were visualized and photographed with a confocal microscope (Zeiss LSM 880, Carl Zeiss, Jena, Germany).
The images were visualized and photographed with a confocal microscope (Zeiss LSM 880, Carl Zeiss, Jena, Germany) or an inverted fluorescence microscope (MF53, MSHOT, Guangzhou, China).
(§3) To evaluate the therapeutic effects of two BACs from BHGZD on the regulation of the “immune-inflammation” system, the levels of cytokines, proteins, and LDH release in RAW264.7 and MH7A cellular supernatant, as well as the sera of AIA-M rats were determined using enzyme-linked immunosorbent assay (ELISA) to assess the integrity of membranes in accordance with the manufacturer’s guidelines.
Raw264.7 cells were maintained in DMEM (Hyclone, Logan, UT, USA), supplemented
100μg/mL streptomycin and 2mM L-glutamine (TBD, Tianjin, China) in a humidified 5%
CO2 incubator at the temperature of 37℃. The Raw264.7 cells at passage numbers four
to eight were used in the current experiment validations.
MH7A cells were cultured in sterile synoviocyte growth medium (Cell Applicatio ns, Inc.,
L-glutamine (TBD, Tianjin, China) in a humidified 5% CO2 incubator at the temperature of
37℃. MH7A at passage numbers four to eight were used in the current experiment
(§4) To induce a conventional NLRP3 inflammasome activation, Raw264.7cells was induced
(§5) with 0.2μg/mL lipopolysaccharide [LPS, Escherichia coli (O111:B4), Sigma-Aldrich, St
(§6) Louis, MO, USA] for 4h, followed with a 3mM ATP adenosine triphosphate (ATP disodium
(§7) salt hydrate, Sigma-Aldrich, St Louis, MO, USA) for 1h of incubation at 37℃ with 5% CO2
(§8) For MH7A cells LPS/ATP-induced pyrotosis, MH7A cells were induced with 1μg/mL LPS
(§9) for 6h, followed with a 3mM ATP for 1h of incubation at 37℃ with 5% CO2 (11).
Another data set relates to MH7A cells. The experiment in a line: LPS/ATP-induced pyroptosis in MH7A cells (TUNEL, immunofluorescence, Western blotting, ELISA). The data set is classed as cell-based, human.
Setting [4] is: LPS/ATP-induced RAW264.7 cells, all p < 0.05.
Where [5] appears, read: LPS/ATP-induced, BHGZD 28.54 μg/ml, MG 1.69 ng/ml, CA 0.13 ng/ml, 24 h.
[6] abbreviates: LPS/ATP-induced MH7A cells, all p < 0.05.

T1 sequence (O00206 24-839): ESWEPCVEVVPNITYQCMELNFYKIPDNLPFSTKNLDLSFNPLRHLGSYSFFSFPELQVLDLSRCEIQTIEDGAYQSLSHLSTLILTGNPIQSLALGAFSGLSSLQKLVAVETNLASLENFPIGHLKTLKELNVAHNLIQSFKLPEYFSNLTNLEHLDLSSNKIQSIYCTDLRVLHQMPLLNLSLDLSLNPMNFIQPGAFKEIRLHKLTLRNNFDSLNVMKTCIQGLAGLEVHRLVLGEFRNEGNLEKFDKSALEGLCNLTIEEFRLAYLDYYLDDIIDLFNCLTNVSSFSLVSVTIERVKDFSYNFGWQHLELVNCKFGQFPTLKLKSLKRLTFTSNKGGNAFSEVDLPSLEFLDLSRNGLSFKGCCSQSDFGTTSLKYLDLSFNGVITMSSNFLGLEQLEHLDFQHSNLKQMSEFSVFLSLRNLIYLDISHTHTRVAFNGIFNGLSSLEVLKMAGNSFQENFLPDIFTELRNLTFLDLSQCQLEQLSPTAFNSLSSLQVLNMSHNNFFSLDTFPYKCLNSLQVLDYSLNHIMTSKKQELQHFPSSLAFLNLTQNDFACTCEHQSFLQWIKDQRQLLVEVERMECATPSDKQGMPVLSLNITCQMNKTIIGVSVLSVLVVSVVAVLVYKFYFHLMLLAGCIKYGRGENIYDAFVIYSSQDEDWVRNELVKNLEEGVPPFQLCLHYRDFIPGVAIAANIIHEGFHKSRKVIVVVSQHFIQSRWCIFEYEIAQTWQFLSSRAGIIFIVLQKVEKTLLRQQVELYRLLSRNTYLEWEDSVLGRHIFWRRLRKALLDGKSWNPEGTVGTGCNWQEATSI
Description for MH7A cells: as §1
The conventional NLRP3 inflammasome activation cellular model was induced by lipopolysaccharide [LPS, Escherichia coli (O111:B4), Sigma-Aldrich, St Louis, MO, USA] and adenosine triphosphate (ATP disodium salt hydrate, Sigma-Aldrich, St Louis, MO, USA) as in our previous study ([22]) ( Supplementary Materials Section 15 ).
as §2
The occurrence of pyroptosis in both MH7A cells and synovium tissues in AIA-M rats was determined by in situ TUNEL staining (TUNEL Andy Fluor™ 594 Apoptosis Detection Kit, ABP Biosciences, Wuhan, China) in accordance with the manufacturer’s protocol. Fluorescence images were visualized and photographed with inverted fluorescence microscopes (MF53, MSHOT, Guangzhou, China; Olympus, BX51, Tokyo, Japan).
Double fluorescence staining was performed as described previously ([22]) ( Supplementary Materials Section 20 ). The images were visualized and photographed with a confocal microscope (Zeiss LSM 880, Carl Zeiss, Jena, Germany) or an inverted fluorescence microscope (MF53, MSHOT, Guangzhou, China).
To evaluate the regulation of BHGZD on the candidate targets in arthritic tissue samples, as well as RAW264.7 and MH7A cells, Western blotting analysis was carried out following the protocol as in our previous studies ([21], [24], [29]). TLR4, phospho-PI3K (p-PI3K), PI3K, p-AKT, p-NFκB-p65, NFκB-p65, NLRP3, ASC, caspase-1, the N-terminal domain of GSDMD (GSDMD-NT), and IL-1β antibodies were used as shown in Supplementary Table S3 . GAPDH (GAPDH Mouse monoclonal antibody, Abcam, Cambridge, UK) and β-actin (Anti-beta-Actin/β-Actin Antibody, Boster Biological Technology, California, USA) were used as loading controls for arthritic tissue samples and cultured cells, respectively.
as §3, §4, §5, §6, §7, §8, §9

On to `O=C(O)/C=C/c1ccccc1` [CA, cinnamic acid], for which the Kd on recombinant TLR4 protein is 211 µM. In data set [1] (apparent elimination half-life), the t1/2z was determined as 1.65 ± 1.34 h. For the same compound, the Cmax in data set [1] (male, Lewis, rat, plasma, po, 21.4 g/kg, non-compartment model, read-out: Cmax) was 120 ± 25.9 ng/mL. The same compound gave an AUC(0-t) in data set [1] (male, Lewis, 0-24 h) of 102 ± 67.8 ng·h/mL. Also, the AUC(0-inf) in data set [1] (male, Lewis) was 144 ± 30.4 ng·h/mL. The MRT last in data set [1] (male, Lewis, read-out: MRT(0-t)) was determined as 1.93 ± 0.35 h. Moreover, the MRT inf in data set [1] (male, Lewis, read-out: MRT(0-∞)) was determined as 2.26 ± 0.8 h. Also, the “cell viability (CCK8)” value with RAW264.7 cells [2] is “no cell toxicity”. In addition, the GSDMD-NT entry in the data set with RAW264.7 cells [3] (LPS/ATP-induced RAW264.7 cells, Western blotting) is given as “decreased”; with MH7A cells (LPS/ATP-induced MH7A cells, Western blotting), “decreased”. The “expression levels of NLRP3, ASC, and caspase-1” value in the data set with RAW264.7 cells [3] (setting [4]) and in the data set with MH7A cells (setting [6]) was “reduced” in each case. Moreover, the “levels of IL-1β, IL-18, and LDH release in the supernatant” value in the data set on RAW264.7 cells [3] (setting [4]) and in the data set with MH7A cells (setting [6]) was “reduced” each time. For the same compound, the “PI positive cell rate” value with RAW264.7 cells [3] (LPS/ATP-induced, 1.69 ng/ml MG, 0.13 ng/ml CA, 24 h, inferior to BHGZD, all p < 0.05) is “prominently reduced”. The “number of FLICA-positive RAW264.7 cells” value in the data set with RAW264.7 cells [3] (setting [5]) was “reduced”. The “inhibition on cell pyroptosis induced by LPS/ATP, alone versus combination” value in the data set on RAW264.7 cells [3] (RAW264.7 and MH7A cells, all p < 0.05) is “weaker than that in the two-BAC combination treatment group”. Also, the “number of TUNEL-positive MH7A cells” value in the data set on MH7A cells (setting [5]) is recorded as “reduced”.
